The results in this text go back to patent US20240300975A1, “DIMETHYL-SUBSTITUTED THIAZOLOLACTAM COMPOUND AND USE THEREOF” (D3 Bio (Wuxi) Co., Ltd., priority 2021, published 2024).

The target in one series is ERK1 (Homo sapiens (Human), UniProt P27361). As to the kind of experiment: In vitro ERK1 kinase activity assay (33P-ATP, filter-binding). Type of series: biochemical. As to the method:
The ability of compounds to inhibit ERK1 and ERK2 kinase activity was measured.
20 mM Hepes (pH 7.5), 10 mM MgCl2, 1 mM ethylenebis(oxyethylenenitrilo)tetraacetic acid (EGTA), 0.02% Brij35, 0.02 mg/mL bovine serum albumin (BSA), 0.1 mM Na3VO4, 2 mM dithiothreitol (DTT), 1% DMSO.
The assay compound was dissolved in 100% DMSO to prepare a stock solution of specific concentration. The compound was serially diluted in DMSO solution using Integra Viaflo Assist smart pipette.
• a) The substrate MBP was prepared in freshly prepared reaction buffer; • b) ERK1 (or ERK2) kinase was added to the above-mentioned MBP solution and mixed gently; • c) The compound dissolved in 100% DMSO was added to the kinase reaction system using ultrasound technology (Echo550; nanoliter range), and the mixture was incubated at room temperature for 20 minutes; • d)^33P-ATP (specific concentration of […]) was added to the reaction system, and the reaction was started at this time; • e) The mixture was incubated at room temperature for 2 hours; • f) The amount of radioactivity was detected by filter-binding method; • g) ERK1 (or ERK2) kinase activity was calculated as the ratio of the remaining kinase activity in the assay sample to the kinase activity of the control group (treated by DMSO).
Curve was fitted using Prism (GraphPad software) and IC50 values were calculated.

The nature of another series: In vivo PK study in mice. The following applies: female BALB/c mice. An excerpt: Female BALB/c mice were used as assay animals to determine the blood concentration of the compound and evaluate the pharmacokinetic behavior after a single administration.
Four healthy adult female BALB/c mice were selected, wherein 2 mice were in an intravenous injection group and 2 mice were in an oral group. The vehicle in the intravenous injection group was 5% DMSO+95% (20% HP-β-CD). The compound to be assayed was mixed with an appropriate amount of vehicle for intravenous injection, vortexed and sonicated to prepare a clear solution of 0.5 mg/mL. The clear solution was filtered by a microporous membrane, and then ready for use. The vehicle in the oral group was 5% DMSO+95% (20% HP-β-CD). The compound to be assayed was mixed with the vehicle, vortexed and sonicated to prepare a solution of 0.3 mg/mL. Mice were administered 1 mg/kg intravenously or 3 mg/kg orally, and then whole blood was collected for a certain period. Plasma was prepared. The drug concentration was analyzed by LC-MS/MS method, and the pharmacokinetic parameters were calculated by Phoenix WinNonlin software (Pharsight, USA).

Series [1] can be described thus: In vivo PK study in beagle dogs. The following applies: male beagle dogs. Here is the method: Male beagle dogs were used as assay animals. After a single administration, the plasma concentration of the compound was measured and the pharmacokinetic behavior was evaluated.
Five healthy adult male beagle dogs were selected, wherein 2 were in an intravenous injection group, and 3 were in an oral group. The vehicle in the intravenous injection group was 5% DMSO+95% (20% HP-β-CD). The compound to be assayed was mixed with an appropriate amount of vehicle for intravenous injection, and dissolved with stirring to prepare a clear solution of 0.4 mg/mL. The clear solution was filtered by a microporous membrane, and then ready for use. The vehicle in the oral group was 5% DMSO+95% (20% HP-β-CD). The compound to be assayed was mixed with the vehicle, and dissolved with stirring to prepare a solution of 0.3 mg/mL. Cynomolgus monkeys were administered 1 mg/kg intravenously or 3 mg/kg orally, and then whole blood was collected for a certain period. Plasma was prepared. The drug concentration was analyzed by LC-MS/MS method, and the pharmacokinetic parameters were calculated by Phoenix WinNonlin software (Pharsight, USA).

For a further series, the system named is mouse plasma albumin. Nature of the series: Plasma protein binding (PPB), mouse plasma. It is filed as in vitro ADME. The following applies: ultracentrifugation, 37° C., 4 h. As to the method:
The binding degree of the assay compound to human/mouse/rat/canine/monkey plasma albumin was studied.
• 1) Matrix preparation: on the day of the assay, plasma was thawed in cold water and centrifuged at 3220 rpm for 5 min to remove all clots. The pH of the resulting plasma was measured and adjusted to 7.4±0.1 using 1% phosphoric acid or 1N sodium hydroxide as needed. • 2) Dilution procedure for the assay compound: the assay compound was dissolved in dimethyl sulfoxide (DMSO) to prepare stock solutions with concentrations of 10 mM and 2 mM, respectively. A 40 μM working solution was prepared by diluting 2 μL of stock solution (2 mM) with 98 μL of DMSO. A 400 μM working solution of the control compound was prepared by diluting 10 μL of stock solution with 240 μL of DMSO. The working solution of the compound (5 μL) was mixed well with a blank matrix (995 μL) at a ratio of 1:200 to prepare a loading matrix.
• a) An equal volume of 30 μL of loading matrix (n=2) was transferred to a sample collection plate to prepare a time 0 (TO) sample for residue determination. The sample was immediately matched with the corresponding blank buffer to a final volume of 60 μL, and the volume ratio of plasma to buffer in each well was 1:1. […] The mixture was centrifuged at 4000 rpm for 20 min and 100 μL of supernatant from each sample was analyzed by LC-MS/MS.

ERK1, sequence (P27361 whole entry): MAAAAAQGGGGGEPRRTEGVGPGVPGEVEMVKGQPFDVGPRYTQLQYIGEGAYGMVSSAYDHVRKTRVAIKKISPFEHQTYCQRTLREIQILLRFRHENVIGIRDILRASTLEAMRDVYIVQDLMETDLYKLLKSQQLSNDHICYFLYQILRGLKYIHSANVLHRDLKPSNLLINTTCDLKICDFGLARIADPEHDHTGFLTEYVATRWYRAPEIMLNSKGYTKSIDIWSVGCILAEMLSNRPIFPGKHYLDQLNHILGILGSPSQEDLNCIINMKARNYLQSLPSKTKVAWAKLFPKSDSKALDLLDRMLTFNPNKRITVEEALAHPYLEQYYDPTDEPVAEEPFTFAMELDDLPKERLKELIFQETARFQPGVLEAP

By IC50 is commonly meant the concentration that inhibits the measured activity by half. As a reminder, the clearance is a measure of how efficiently the substance is removed, as volume per time. A high value points to a high capacity for elimination. One may read the bioavailability as dose-corrected exposure relative to a reference, in per cent. By half-life is commonly meant the time needed for the level to fall by half in the phase considered. A low value points to fast loss. The Cmax is the maximum level reached in the sampled fluid or tissue. `Cc1cccc(CN2C(=O)c3nc(-c4nc(Nc5ccnn5C)ncc4C)sc3C2(C)C)n1` [WX001] gave an IC50 at ERK1 of 1.2 nM. Besides, the results for the “Oral DNAUC (AUCPO/Dose)” value (in “In vivo PK study in mice” (3 mg/kg orally); in series [1] (3 mg/kg orally)) were 787.18 nM · h/mpk and 1099.27 nM · h/mpk, respectively. Moreover, the clearance in the series “In vivo PK study in mice” (mouse, plasma, iv, 1 mg/kg intravenously) was determined as 27.5 mL/min/kg; in series [1] (dog, plasma, iv, 1 mg/kg intravenously), 19 mL/min/kg. Also, the Vd is 1.6 L/kg in the series “In vivo PK study in mice” (mouse, plasma, iv, 1 mg/kg intravenously, read-out: Vdss) and 1.94 L/kg in series [1] (dog, plasma, iv, 1 mg/kg intravenously, read-out: Vdss). Further, the bioavailability in the series “In vivo PK study in mice” (mouse, plasma, oral, 1 mg/kg intravenously / 3 mg/kg orally, read-out: F % (oral bioavailability)) turned out to be 62%; in series [1] (dog, plasma, oral, 1 mg/kg intravenously / 3 mg/kg orally, read-out: F % (oral bioavailability)), 52%. The half-life in the series “In vivo PK study in mice” (mouse, plasma, single administration) was 1.29 h; in series [1] (dog, plasma, single administration), 1.09 h. Moreover, the Cmax in “In vivo PK study in mice” (mouse, po, 3 mg/kg orally, plasma) turned out to be 2120 nM; in series [1] (dog, po, 3 mg/kg orally, plasma), 1230 nM. Also, in the series with mouse plasma albumin, the “Plasma protein binding rate (unbound %)” value is on record as 7.2%.
